Results: patent US12479847B2 (DANA-FARBER CANCER INSTITUTE, INC., priority 2019, dated 2025)

What was measured:
Assay in all cases: KINOMEscan (ScanMAX) kinase profiling
Format in all cases: binding
[1] = molecular target: T1, panel of 468 kinases (Homo sapiens, UniProt O15075); settings: DCAMKL1; 1 μM; read-out: % control
T1 construct: purchased KINOMEscan (ScanMAX) service

[2] = molecular target: T2, panel of 468 kinases (Homo sapiens, UniProt O95819); settings: MAP4K4; 1 μM; read-out: % control
T2 construct: purchased KINOMEscan (ScanMAX) service
T2 sequence (O95819 whole entry): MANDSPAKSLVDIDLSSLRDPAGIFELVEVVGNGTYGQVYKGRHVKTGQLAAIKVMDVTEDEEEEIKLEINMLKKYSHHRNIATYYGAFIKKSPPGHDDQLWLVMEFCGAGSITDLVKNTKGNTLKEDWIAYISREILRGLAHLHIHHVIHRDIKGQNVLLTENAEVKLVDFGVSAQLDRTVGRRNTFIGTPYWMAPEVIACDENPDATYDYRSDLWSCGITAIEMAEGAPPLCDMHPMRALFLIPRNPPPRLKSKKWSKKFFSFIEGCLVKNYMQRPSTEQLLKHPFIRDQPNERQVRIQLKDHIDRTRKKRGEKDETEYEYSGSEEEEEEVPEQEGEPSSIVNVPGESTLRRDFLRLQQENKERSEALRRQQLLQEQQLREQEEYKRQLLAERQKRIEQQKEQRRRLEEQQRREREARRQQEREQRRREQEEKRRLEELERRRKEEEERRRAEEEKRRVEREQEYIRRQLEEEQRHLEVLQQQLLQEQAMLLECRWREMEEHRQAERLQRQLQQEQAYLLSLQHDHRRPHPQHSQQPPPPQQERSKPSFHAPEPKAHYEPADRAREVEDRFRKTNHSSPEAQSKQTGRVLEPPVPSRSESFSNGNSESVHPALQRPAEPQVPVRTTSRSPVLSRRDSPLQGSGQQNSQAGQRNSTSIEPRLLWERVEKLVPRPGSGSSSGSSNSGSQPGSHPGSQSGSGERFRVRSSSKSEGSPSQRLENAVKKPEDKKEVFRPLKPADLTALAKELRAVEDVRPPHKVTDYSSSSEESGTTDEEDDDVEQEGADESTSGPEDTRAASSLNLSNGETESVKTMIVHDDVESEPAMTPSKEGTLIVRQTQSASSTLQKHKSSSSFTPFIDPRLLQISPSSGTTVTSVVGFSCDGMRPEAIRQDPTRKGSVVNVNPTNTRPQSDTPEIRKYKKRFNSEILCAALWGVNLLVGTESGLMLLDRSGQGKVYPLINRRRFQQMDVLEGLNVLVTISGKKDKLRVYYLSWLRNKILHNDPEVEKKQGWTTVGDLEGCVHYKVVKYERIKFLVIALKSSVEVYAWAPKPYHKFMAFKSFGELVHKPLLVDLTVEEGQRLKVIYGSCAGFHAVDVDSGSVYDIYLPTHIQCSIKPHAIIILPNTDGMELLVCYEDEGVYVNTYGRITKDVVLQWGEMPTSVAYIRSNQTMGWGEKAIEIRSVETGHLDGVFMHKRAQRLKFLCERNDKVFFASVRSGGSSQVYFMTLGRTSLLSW

[3] = molecular target: T3, panel of 468 kinases (Homo sapiens, UniProt Q16832); settings: DDR2; 1 μM; read-out: % control
T3 construct: purchased KINOMEscan (ScanMAX) service
T3 sequence (Q16832 22-855): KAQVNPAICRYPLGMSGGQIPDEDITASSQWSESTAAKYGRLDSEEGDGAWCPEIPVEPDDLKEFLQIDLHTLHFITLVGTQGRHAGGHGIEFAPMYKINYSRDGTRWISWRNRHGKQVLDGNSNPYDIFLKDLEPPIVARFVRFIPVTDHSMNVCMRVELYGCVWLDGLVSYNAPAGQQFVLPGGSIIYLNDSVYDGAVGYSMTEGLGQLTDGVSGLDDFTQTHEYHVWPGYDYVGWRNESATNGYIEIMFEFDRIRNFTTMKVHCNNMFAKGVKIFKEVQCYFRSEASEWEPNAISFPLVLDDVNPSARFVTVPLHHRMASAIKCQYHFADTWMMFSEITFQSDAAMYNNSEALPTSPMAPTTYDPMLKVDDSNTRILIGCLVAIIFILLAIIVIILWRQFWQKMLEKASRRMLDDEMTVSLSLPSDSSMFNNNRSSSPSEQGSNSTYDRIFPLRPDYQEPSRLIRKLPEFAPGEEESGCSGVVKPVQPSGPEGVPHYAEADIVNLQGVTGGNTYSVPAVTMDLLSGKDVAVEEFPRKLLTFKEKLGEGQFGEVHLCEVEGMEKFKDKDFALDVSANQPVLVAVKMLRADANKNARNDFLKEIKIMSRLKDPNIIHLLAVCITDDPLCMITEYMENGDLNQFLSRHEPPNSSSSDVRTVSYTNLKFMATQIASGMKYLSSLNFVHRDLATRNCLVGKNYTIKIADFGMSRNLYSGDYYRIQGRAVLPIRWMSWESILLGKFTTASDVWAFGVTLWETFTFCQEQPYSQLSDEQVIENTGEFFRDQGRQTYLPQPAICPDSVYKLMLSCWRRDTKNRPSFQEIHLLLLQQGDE

[4] = molecular target: T4, panel of 468 kinases (Homo sapiens, UniProt P51817); settings: PRKX; 1 μM; read-out: % control
T4 construct: purchased KINOMEscan (ScanMAX) service
T4 sequence (P51817 1-358): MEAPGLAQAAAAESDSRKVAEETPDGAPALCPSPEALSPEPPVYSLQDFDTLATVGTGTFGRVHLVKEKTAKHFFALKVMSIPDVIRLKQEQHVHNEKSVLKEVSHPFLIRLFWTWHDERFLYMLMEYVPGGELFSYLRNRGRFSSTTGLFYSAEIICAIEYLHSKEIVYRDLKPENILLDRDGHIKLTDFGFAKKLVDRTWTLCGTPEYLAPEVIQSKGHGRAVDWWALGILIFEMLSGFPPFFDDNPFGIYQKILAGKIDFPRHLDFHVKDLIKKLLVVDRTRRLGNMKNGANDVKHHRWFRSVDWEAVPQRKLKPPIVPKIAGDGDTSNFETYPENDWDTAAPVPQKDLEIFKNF

[5] = molecular target: T5, panel of 468 kinases (Homo sapiens, UniProt Q9P1W9); settings: PIM2; 1 μM; read-out: % control
T5 construct: purchased KINOMEscan (ScanMAX) service
T5 sequence (Q9P1W9 whole entry): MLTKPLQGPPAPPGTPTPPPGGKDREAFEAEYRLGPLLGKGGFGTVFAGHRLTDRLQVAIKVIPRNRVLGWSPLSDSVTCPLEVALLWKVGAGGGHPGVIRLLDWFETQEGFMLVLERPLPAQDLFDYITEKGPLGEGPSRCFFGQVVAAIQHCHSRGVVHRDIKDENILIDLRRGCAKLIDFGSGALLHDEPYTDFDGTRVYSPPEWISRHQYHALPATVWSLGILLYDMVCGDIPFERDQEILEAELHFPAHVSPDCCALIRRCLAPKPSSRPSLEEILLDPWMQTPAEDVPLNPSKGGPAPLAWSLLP

[6] = molecular target: T6, panel of 468 kinases (Homo sapiens, UniProt P31152); settings: ERK4; 1 μM; read-out: % control
T6 construct: purchased KINOMEscan (ScanMAX) service
T6 sequence (P31152 whole entry): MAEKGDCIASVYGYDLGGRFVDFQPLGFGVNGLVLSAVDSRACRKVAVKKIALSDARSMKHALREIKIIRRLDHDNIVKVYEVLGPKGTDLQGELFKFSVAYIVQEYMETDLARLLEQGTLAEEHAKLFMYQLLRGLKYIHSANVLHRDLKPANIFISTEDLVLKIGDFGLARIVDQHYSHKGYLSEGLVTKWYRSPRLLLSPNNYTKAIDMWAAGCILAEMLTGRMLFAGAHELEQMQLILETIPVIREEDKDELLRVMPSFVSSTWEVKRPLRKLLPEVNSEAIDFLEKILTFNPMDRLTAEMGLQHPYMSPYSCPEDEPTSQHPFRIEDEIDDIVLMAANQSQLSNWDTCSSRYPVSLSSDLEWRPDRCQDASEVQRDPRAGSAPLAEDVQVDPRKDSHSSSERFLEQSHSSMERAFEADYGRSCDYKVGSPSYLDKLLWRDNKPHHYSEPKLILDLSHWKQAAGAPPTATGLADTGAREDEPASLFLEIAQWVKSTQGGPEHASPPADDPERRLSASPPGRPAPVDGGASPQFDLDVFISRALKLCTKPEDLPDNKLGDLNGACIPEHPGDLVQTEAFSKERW

[7] = molecular target: T7, panel of 468 kinases (Homo sapiens, UniProt P36888, D835H); settings: FLT3(D835H); 1 μM; read-out: % control
T7 construct: purchased KINOMEscan (ScanMAX) service
T7 sequence (P36888 27-993 D835H): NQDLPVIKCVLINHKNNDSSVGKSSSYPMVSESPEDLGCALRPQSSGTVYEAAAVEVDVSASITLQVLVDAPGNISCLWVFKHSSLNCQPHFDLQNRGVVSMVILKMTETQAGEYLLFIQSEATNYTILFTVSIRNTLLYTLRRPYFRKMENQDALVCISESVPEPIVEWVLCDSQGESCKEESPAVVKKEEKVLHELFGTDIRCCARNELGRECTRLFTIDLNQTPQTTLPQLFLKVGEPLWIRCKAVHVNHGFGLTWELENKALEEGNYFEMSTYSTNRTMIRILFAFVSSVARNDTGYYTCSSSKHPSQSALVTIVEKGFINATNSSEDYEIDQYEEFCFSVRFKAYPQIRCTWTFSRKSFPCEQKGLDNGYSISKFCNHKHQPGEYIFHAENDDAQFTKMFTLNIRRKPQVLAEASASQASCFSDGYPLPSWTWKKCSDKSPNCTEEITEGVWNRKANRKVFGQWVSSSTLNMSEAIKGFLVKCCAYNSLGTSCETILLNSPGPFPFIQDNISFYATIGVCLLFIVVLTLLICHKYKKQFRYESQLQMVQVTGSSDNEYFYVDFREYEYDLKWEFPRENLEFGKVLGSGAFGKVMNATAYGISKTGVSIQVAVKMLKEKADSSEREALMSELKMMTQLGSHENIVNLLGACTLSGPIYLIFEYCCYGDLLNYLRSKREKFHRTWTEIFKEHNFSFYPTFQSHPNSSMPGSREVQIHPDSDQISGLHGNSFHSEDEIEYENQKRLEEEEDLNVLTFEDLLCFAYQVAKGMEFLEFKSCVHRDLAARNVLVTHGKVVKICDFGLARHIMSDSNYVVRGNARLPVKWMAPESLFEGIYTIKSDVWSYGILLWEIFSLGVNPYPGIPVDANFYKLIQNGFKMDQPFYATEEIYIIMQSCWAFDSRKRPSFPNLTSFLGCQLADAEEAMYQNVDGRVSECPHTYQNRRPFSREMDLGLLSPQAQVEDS

T1 sequence (O15075 whole entry): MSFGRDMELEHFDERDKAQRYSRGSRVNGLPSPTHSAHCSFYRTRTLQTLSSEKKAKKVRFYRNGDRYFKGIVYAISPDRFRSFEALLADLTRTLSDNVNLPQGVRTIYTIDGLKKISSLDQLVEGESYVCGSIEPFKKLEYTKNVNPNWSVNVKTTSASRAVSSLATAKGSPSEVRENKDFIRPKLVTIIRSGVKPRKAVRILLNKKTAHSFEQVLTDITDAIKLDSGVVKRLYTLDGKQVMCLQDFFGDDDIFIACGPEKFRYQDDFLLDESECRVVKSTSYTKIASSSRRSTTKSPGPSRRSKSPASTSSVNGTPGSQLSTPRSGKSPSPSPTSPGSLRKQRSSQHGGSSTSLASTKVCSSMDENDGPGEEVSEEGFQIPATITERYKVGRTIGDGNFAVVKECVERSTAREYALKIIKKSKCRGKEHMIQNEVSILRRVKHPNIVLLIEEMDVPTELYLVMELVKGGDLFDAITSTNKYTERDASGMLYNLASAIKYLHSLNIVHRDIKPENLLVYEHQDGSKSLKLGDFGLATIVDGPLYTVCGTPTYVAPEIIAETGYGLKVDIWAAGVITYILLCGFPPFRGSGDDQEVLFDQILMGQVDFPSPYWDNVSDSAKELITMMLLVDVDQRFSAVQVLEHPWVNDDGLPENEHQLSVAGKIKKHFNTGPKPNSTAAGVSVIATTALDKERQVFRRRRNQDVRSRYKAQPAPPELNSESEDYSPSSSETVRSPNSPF

SMILES	remaining binding at 1 µM [1] [%]	remaining binding at 1 µM [2] [%]	remaining binding at 1 µM [3] [%]	remaining binding at 1 µM [4] [%]	remaining binding at 1 µM [5] [%]	remaining binding at 1 µM [6] [%]	remaining binding at 1 µM [7] [%]
CNc1nc(Nc2ccc(S(=O)(=O)N3CCC(N4CCOCC4)CC3)cc2OC)nc2[nH]cc(Cl)c12 [Compound 12, 5-chloro-N2-(2-methoxy-4-((4-morpholinopiperidin-1-yl)sulfonyl)phenyl)-N4-methyl-7H-pyrrolo[2,3-d]pyrimidine-2,4-diamine]	94	95	84	87	99	100	100
CNc1nc(Nc2ccc(C(=O)N3CCC(N4CCOCC4)CC3)c3c2OCO3)nc2[nH]cc(Cl)c12 [Compound 75, (7-((5-chloro-4-(methylamino)-7H-pyrrolo[2,3-d]pyrimidin-2-yl)amino)benzo[d][1,3]dioxol-4-yl)(4-morpholinopiperidin-1-yl)methanone]	74	54	93	92	100	100	37
CNc1nc(Nc2ccc(P3(=O)CCN(C4CCOCC4)CC3)cc2OC)nc2[nH]cc(Cl)c12 [Compound 77, 4-(4-((5-chloro-4-(methylamino)-7H-pyrrolo[2,3-d]pyrimidin-2-yl)amino)-3-methoxyphenyl)-1-(tetrahydro-2H-pyran-4-yl)-1,4-azaphosphinane 4-oxide]	74	100	84	96	100	100	84
